Laboratory results published in patent publication US8906888B2, “Low-calcemic 16,23-diene 25-oxime analogs of 1α,25-dihydroxy vitamin D3” (Cytochroma Inc., priority 2005, dated 2014).

Tests used:
[1] = biological target: T1, DBP (vitamin D binding protein) (Homo sapiens, UniProt P02774); assay: DBP binding assay (human plasma, [3H]-25(OH)D3 displacement); settings: human plasma diluted 1:5000; read-out: B50 (DBP binding, displacement of 50 percent [3H]-25(OH)D3)
T1 construct: Human plasma diluted to 1:5000 with Tris buffer/gelatin solution; from tissue; host or cells: human plasma
T1 sequence (P02774 17-474): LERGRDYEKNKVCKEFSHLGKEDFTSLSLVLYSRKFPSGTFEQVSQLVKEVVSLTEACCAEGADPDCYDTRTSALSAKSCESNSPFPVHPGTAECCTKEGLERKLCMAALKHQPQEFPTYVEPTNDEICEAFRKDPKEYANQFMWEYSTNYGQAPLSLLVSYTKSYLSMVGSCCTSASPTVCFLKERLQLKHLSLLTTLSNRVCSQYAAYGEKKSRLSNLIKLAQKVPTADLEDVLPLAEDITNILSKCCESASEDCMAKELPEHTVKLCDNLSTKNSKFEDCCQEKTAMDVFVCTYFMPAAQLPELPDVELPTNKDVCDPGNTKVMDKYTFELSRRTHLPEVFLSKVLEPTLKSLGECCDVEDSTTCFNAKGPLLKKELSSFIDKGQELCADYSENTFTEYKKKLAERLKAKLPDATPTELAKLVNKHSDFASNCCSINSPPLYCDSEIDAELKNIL
Protocol: 1. Tris buffer: • 22.50 g Tris-HCI • 500 ml H2O
5. DBP (vitamin D binding protein) (human plasma)
2. Dextran Coated Charcoal Solution • (1) preparation of charcoal solution • Norit decolorizing neutral charcoal 2.0 g • Tris buffer 150 mL • Stirring • (2) preparation of dextran solution • Dextran T—70 0.2 g • Tris buffer 50 ml • (3) preparation of dextran coated charcoal solution • Slowly dripped the dextran solution into charcoal solution with stirring. • Kept refrigerated overnight. • Thirty minute before use, kept it on ice with continuous mixing. • This solution can be kept in 4° C. for 2 month.
4. DBP Solution • Human plasma diluted to 1:5000 with Tris buffer/gelatin solution
8. [^3H-26,27]-[…] Solution • Stock solution diluted in Tris buffer, 20,000 CPM/50 μl. (C) Assay
(D) Calculation: • The amount of 25(OH)D3 to displace 50 percent [3H]-25(OH)D3 was calculated as B50 for 25(OH)D3 DBP binding. The DBP binding of other compounds was calculated as B50 relative to a value of 1 for 25(OH)D3.

CYP24 mRNA = assay: CYP24 transcriptional activation assay in U-937 cells (real time PCR); assay type: cell-based, human; settings: six hours, normalized to GAPDH, 100 nM calcitriol set to 100%
Protocol: 1α,25(OH)2D3 1 mM reconstituted in isopropanol
• Sodium pyruvate • Non-essential amino acids • HEPES • 10% fetal bovine serum Phorbol 12-myristate 13-acetate (PMA) 24-well plate Isopropanol TRIzol® reagent (Invitrogen) Chloroform Ethanol Diethylpyrocarbonate treated dH2O Thermoscript™ RT-PCR System kit (Invitrogen) Human CYP24 TaqMan® Probe (Applied Biosystems Inc) Human GAPDH TaqMan® Probe (Applied Biosystems Inc) TaqMan® Universal Master Mix Probe (Applied Biosystems Inc) (ii) Procedure:
1. Cell Culture, Stimulation and Plating • Cultured U-937 cells in 4+RPMI media to a level of ≈80% confluence. Pelleted cells by centrifugation and resuspended to a concentration of 5×10^5 cells per 1 ml media. Treated U-937 cells with a final concentration of PMA of 20 ng/ml. To each well, of a 24-well plate, added 1 ml of cell suspension and incubated overnight at 37° C., in a humidified atmosphere containing 5% CO2, for adherence of cells to the wells.
2. Cell Treatment and TRIzol® Addition • Changed the media with 1 ml of fresh 4+RPMI media. Added 1 μl of the working solutions of 1, 10, and 100 μM of the compound being tested, in triplicate. Added 1 μl of isopropanol as a control, in triplicate. Incubated the cells for six hours at 37° C., in a humidified atmosphere containing 5% CO2, aspirated off the media and then added 1 ml of TRIzol® reagent. Transferred TRIzol® with cell lysate to a 1.7 ml microcentrifuge tube and stored at −80° C.
3. […] Determined the concentration of RNA using a spectrophotometer to measure the optical density of each sample, at a wavelength of 260 nm. […]
4. CYP24/GAPDH Real Time PCR • Determined the amount of CYP24 and GAPDH mRNA present in each sample using commercial TaqMan® probes, from Applied Biosystems Inc. (Foster City, Calif.). Detected both genes in the same 20 μl reaction, using an ABI PRISM 96-well optical reaction plate and cycle 50 times using an ABI Prism 7000 Sequence Detection System® (ABI). […]

OVCAR-3 cells = assay: [3H]-Thymidine proliferation assay with OVCAR-3 cells; assay type: cell-based; settings: ovarian cancer cells, 6 days, 3H-thymidine incorporation
Protocol: 1. Preparation of Suspension • When OVCAR-3 cells were ˜50% confluent, aspirated media. Washed cells with 1×PBS. Trypsinized with trypsin-EDTA, collected cells from the tissue culture flask, centrifuged (200×g, 5 min) and resuspended in media.
2. Cell Plating. • Counted the cells and adjusted the cell density to 11.4×10^3 to provide 2000 cells in 175 μl (for 1 well). Distributed cell suspension into a 96 well plates at 175 μl (2000 cells) per well. Incubated plate for 24 h at 37° C. in a humidified atmosphere plus 5% CO2. • Substrate addition. • Added 25 μl of compound (final concentration 10^−7 M, 5×10^−8 M 10^−8 M, 5×10^−9 M, 10^−9 M, 10^−10M or 0 M) into each designated well. Incubated plates for 6 days without changing media and drugs at 37° C. in a humidified atmosphere plus 5% CO2.
3. [^3H]-Thymidine incorporation • Added ^3H-thymidine at 0.02 μCi per well and incubated at 37° C. in a humidified atmosphere plus 5% CO2 for 6 h.
4. Plate Harvesting. • Aspirated all media and washed cells with 1×PBS. Trypsinized cells for 30 min at 37° C. in a humidified atmosphere plus 5% CO2. Harvested cells onto a 96 well filter plate (Millipore) using a Tomtec Cell Harvestor, according to manufacturers instructions.
5. Scintillation Counting. • Added 25 μl of scintillation fluid per well. Counted the plate using a scintillation counter. Results: Compounds (20R)-I(a), (20R)-I(c) and (20R)-I(e) all inhibited the proliferation of OVCAR-3 cells.

IC50 [1]: > 3.5 µM
SMILES: C=C1/C(=C\C=C2/CCC[C@]3(C)C([C@H](C)C/C=C/C(=NOC)C(C)(C)C)=CC[C@@H]23)C[C@@H](O)C[C@@H]1O [(20R)-I(e)]
CYP24 mRNA induction, activity as % of that for calcitriol at 100 nM (CYP24 mRNA): 65% | Inhibition of OVCAR-3 cell proliferation (OVCAR-3 cells): inhibited
